# Key:
# [1] = system: MDA-MB-231; assay: Antiproliferative activity against human MDA-MB-231 cells assessed as reduction in cell proliferation incubated for 72 hrs by CellTiter-Glo reagent based assay; format: functional; settings: MDA-MB-231, 72 h
# [2] = Apparent permeability from apical to basolateral side in human Caco2 cells at 10 uM by LC/MS/MS analysis
# [3] = Efflux ratio in human Caco2 cells at 10 uM by LC/MS/MS analysis
# [4] = Stability in rat liver microsomes assessed as parent compound remaining at 1 uM pre-incubated for 10 mins before NADPH addition and measured after 30 mins by LC/MS/MS analysis; format: ADME, Microsome; settings: read-out: Stability
# [5] = Stability in human liver microsomes assessed as parent compound remaining at 1 uM pre-incubated for 10 mins before NADPH addition and measured after 30 mins by LC/MS/MS analysis; format: ADME, Microsome; settings: read-out: Stability
# [6] = molecular target: hERG (KCNH2) (Homo sapiens, UniProt Q12809); assay: Inhibition of human ERG at 10 uM by patch-clamp assay relative to control
# Sequence of hERG (KCNH2) (Q12809 whole entry): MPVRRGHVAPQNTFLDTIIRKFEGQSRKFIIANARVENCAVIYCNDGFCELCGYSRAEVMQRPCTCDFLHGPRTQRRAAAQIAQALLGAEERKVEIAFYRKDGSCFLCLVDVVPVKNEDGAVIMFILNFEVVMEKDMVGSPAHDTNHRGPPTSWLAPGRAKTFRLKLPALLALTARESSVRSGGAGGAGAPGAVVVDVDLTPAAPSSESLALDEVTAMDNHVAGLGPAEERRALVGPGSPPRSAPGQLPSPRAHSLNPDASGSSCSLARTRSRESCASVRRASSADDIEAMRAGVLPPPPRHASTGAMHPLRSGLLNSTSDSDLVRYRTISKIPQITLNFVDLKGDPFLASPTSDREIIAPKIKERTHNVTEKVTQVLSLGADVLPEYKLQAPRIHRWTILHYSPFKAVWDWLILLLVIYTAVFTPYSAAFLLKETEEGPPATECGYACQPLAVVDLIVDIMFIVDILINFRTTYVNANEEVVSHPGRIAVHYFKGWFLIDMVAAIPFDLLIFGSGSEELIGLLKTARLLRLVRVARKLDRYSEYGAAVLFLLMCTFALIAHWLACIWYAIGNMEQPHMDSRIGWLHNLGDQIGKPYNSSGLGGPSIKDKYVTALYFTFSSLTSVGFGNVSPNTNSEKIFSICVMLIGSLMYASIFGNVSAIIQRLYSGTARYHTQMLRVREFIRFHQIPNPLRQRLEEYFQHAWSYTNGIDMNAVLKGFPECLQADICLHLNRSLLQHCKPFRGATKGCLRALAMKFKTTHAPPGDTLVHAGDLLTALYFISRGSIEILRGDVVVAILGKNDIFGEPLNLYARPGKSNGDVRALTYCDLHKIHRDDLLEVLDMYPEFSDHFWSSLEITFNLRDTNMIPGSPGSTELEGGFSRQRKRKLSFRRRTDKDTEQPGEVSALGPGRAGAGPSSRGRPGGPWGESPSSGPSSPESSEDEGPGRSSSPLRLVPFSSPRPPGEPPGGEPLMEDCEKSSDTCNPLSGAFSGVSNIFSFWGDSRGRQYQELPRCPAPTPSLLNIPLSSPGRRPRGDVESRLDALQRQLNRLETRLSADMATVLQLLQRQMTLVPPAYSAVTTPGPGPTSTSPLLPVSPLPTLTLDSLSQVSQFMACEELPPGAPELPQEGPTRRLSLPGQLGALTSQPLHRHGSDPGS
compound,measurement,setting,value
COc1ccc([C@@]23Oc4cc(Cl)cnc4[C@]2(O)[C@H](O)[C@H](C(=O)N(C)C)[C@H]3c2ccccc2)cc1,IC50,[1],283 nM
CN(C)S(=O)(=O)[C@H]1[C@@H](O)[C@@]2(O)c3ncc(Cl)cc3O[C@@]2(c2ccc(C#N)cc2)[C@@H]1c1ccccc1 (racemic),IC50,[1],304 nM
CS(=O)(=O)[C@H]1[C@@H](O)[C@@]2(O)c3ncc(Cl)cc3O[C@@]2(c2ccc(C#N)cc2)[C@@H]1c1ccccc1,IC50,[1],3020 nM
CN(C)C(=O)[C@H]1[C@@H](O)[C@@]2(O)c3ncc(Cl)cc3O[C@@]2(c2ccc(Cl)cc2)[C@@H]1c1ccccc1,IC50,[1],160 nM
COc1cncc2c1[C@]1(O)[C@H](O)[C@H](CN3[C@@H]4CCC[C@H]3CC4)[C@@H](c3ccccc3)[C@]1(c1ccc(C#N)cc1)O2,IC50,[1],143 nM
same,Papp A→B at 10 µM,[2]; Caco-2,0.5 ×10⁻⁶ cm/s
same,efflux ratio at 10 µM,[3]; Caco-2,35
same,"remaining at 0.5 h, 1 µM",[4],68%
same,"remaining at 0.5 h, 1 µM",[5],62%
COc1cnc2c(c1)O[C@@]1(c3ccc(C#N)cc3)[C@H](c3ccccc3)[C@@H](C(=O)N(C)C)[C@@H](O)[C@@]21O,IC50,[1],159 nM
N#Cc1ccc([C@@]23Oc4cc(Cl)cnc4[C@]2(O)[C@H](O)C[C@H]3c2ccccc2)cc1 (racemic),IC50,[1],670 nM
N#Cc1ccc([C@@]23Oc4cc(Cl)cnc4[C@]2(O)[C@H](O)[C@H](CO)[C@H]3c2ccccc2)cc1 (racemic),IC50,[1],1460 nM
CN(C)C(=O)[C@H]1[C@@H](O)[C@@]2(O)c3ncc(C#N)cc3O[C@@]2(c2ccc(C#N)cc2)[C@@H]1c1ccccc1,IC50,[1],385 nM
COc1cncc2c1[C@]1(O)[C@H](O)[C@H](CN3CCOCC3)[C@@H](c3ccccc3)[C@]1(c1ccc(C#N)cc1)O2,IC50,[1],121 nM
same,Papp A→B at 10 µM,"[2]; Caco-2, Papp",1.5 ×10⁻⁶ cm/s
same,efflux ratio at 10 µM,"[3]; Caco-2, Ratio",5.3
same,"remaining at 0.5 h, 1 µM",[4],52%
same,"remaining at 0.5 h, 1 µM",[5],40%
same,inhibition at 10 µM,[6],< 10%
COc1cncc2c1[C@]1(O)[C@H](O)[C@H](CN(C)CC(F)(F)F)[C@@H](c3ccccc3)[C@]1(c1ccc(C#N)cc1)O2,IC50,[1],196 nM
same,Papp A→B at 10 µM,[2]; Caco-2,7.1 ×10⁻⁶ cm/s
same,efflux ratio at 10 µM,[3]; Caco-2,1.3
same,"remaining at 0.5 h, 1 µM",[4],< 1%
same,"remaining at 0.5 h, 1 µM",[5],< 1%
CNS(=O)(=O)[C@H]1[C@@H](O)[C@@]2(O)c3ncc(Cl)cc3O[C@@]2(c2ccc(C#N)cc2)[C@@H]1c1ccccc1 (racemic),IC50,[1],2040 nM
CN(C)C(=O)[C@H]1[C@@H](O)[C@@]2(O)c3ncc(Cl)cc3O[C@@]2(c2ccc(C(F)F)cc2)[C@@H]1c1ccccc1,IC50,[1],241 nM
COc1ccc([C@@]23Oc4cc(OC)cc(OC)c4[C@]2(O)[C@H](O)[C@H](C(=O)N(C)C)[C@H]3c2ccccc2)cc1 [ROCAGLAMIDE],IC50,[1],20 nM
N#Cc1ccc([C@@]23Oc4cc(Cl)cnc4[C@]2(O)[C@H](O)[C@H](c2ncco2)[C@H]3c2ccccc2)cc1 (racemic),IC50,[1],236 nM
CN(C)C(=O)[C@H]1[C@@H](O)[C@@]2(O)c3ncc(Cl)cc3O[C@@]2(c2ccc(C#N)cc2)[C@@H]1c1ccccc1,IC50,[1],87 nM
same,Papp A→B at 10 µM,[2]; Caco-2,1.8 ×10⁻⁶ cm/s
N#Cc1ccc([C@@]23Oc4cc(Cl)cnc4[C@]2(O)[C@H](O)[C@H](C(N)=O)[C@H]3c2ccccc2)cc1,IC50,[1],90 nM
same,Papp A→B at 10 µM,[2]; Caco-2,0.5 ×10⁻⁶ cm/s
COc1cncc2c1[C@]1(O)[C@H](O)[C@H](CN(C)CC(F)F)[C@@H](c3ccccc3)[C@]1(c1ccc(C#N)cc1)O2,IC50,[1],250 nM
same,Papp A→B at 10 µM,[2]; Caco-2,2.6 ×10⁻⁶ cm/s
same,efflux ratio at 10 µM,[3]; Caco-2,3.2
same,"remaining at 0.5 h, 1 µM",[4],< 1%
same,"remaining at 0.5 h, 1 µM",[5],1%
same,inhibition at 10 µM,[6],11%
COc1cncc2c1[C@]1(O)[C@H](O)[C@H](CN3CCCCC3)[C@@H](c3ccccc3)[C@]1(c1ccc(C#N)cc1)O2,IC50,[1],50 nM
same,"remaining at 0.5 h, 1 µM",[4],56%
same,"remaining at 0.5 h, 1 µM",[5],81%
COc1nccc2c1[C@]1(O)[C@H](O)[C@H](C(=O)N(C)C)[C@@H](c3ccccc3)[C@]1(c1ccc(C#N)cc1)O2 (racemic),IC50,[1],314 nM
CN(C)C(=O)[C@H]1[C@@H](O)[C@@]2(O)c3ncc(Cl)cc3O[C@@]2(c2ccc(C(F)(F)F)cc2)[C@@H]1c1ccccc1,IC50,[1],320 nM
CNC(=O)[C@H]1[C@@H](O)[C@@]2(O)c3ncc(Cl)cc3O[C@@]2(c2ccc(C#N)cc2)[C@@H]1c1ccccc1,IC50,[1],32 nM
same,Papp A→B at 10 µM,"[2]; Caco-2, Papp",0.5 ×10⁻⁶ cm/s
COc1cncc2c1[C@]1(O)[C@H](O)[C@H](CN)[C@@H](c3ccccc3)[C@]1(c1ccc(C#N)cc1)O2 (racemic),IC50,[1],211 nM
same,Papp A→B at 10 µM,[2]; Caco-2,0.11 ×10⁻⁶ cm/s
same,efflux ratio at 10 µM,[3]; Caco-2,4
same,"remaining at 0.5 h, 1 µM",[4],104%
same,"remaining at 0.5 h, 1 µM",[5],106%
same,inhibition at 10 µM,[6],11%
CN(C)C(=O)[C@H]1[C@@H](O)[C@@]2(O)c3ccc(Cl)cc3O[C@@]2(c2ccc(C#N)cc2)[C@@H]1c1ccccc1 (racemic),IC50,[1],19 nM
COc1cncc2c1[C@]1(O)[C@H](O)[C@H](CN3CC4(COC4)C3)[C@@H](c3ccccc3)[C@]1(c1ccc(C#N)cc1)O2,IC50,[1],124 nM
same,Papp A→B at 10 µM,[2]; Caco-2,0.1 ×10⁻⁶ cm/s
same,efflux ratio at 10 µM,[3]; Caco-2,41
same,"remaining at 0.5 h, 1 µM",[4],74%
same,"remaining at 0.5 h, 1 µM",[5],81%
COc1ccc([C@@]23Oc4cc(Cl)ccc4[C@]2(O)[C@H](O)[C@H](C(=O)N(C)C)[C@H]3c2ccccc2)cc1 (racemic),IC50,[1],52 nM
COc1cncc2c1[C@]1(O)[C@H](O)[C@H](CN3CC(F)(F)C3)[C@@H](c3ccccc3)[C@]1(c1ccc(C#N)cc1)O2,IC50,[1],208 nM
same,Papp A→B at 10 µM,[2]; Caco-2,1.9 ×10⁻⁶ cm/s
same,efflux ratio at 10 µM,[3]; Caco-2,5.7
same,inhibition at 10 µM,[6],< 10%
COc1cncc2c1[C@]1(O)[C@H](O)[C@H](CN3CCC(F)(F)CC3)[C@@H](c3ccccc3)[C@]1(c1ccc(C#N)cc1)O2,IC50,[1],158 nM
same,Papp A→B at 10 µM,[2]; Caco-2,4.8 ×10⁻⁶ cm/s
same,efflux ratio at 10 µM,[3]; Caco-2,1.7
same,"remaining at 0.5 h, 1 µM",[4],42%
same,"remaining at 0.5 h, 1 µM",[5],45%
same,inhibition at 10 µM,[6],30%
COc1ccc([C@@]23Oc4cc(OC)ccc4[C@]2(O)[C@H](O)[C@H](C(=O)N(C)C)[C@H]3c2ccccc2)cc1 (racemic),IC50,[1],198 nM
Cc1ccc([C@@]23Oc4cc(Cl)cnc4[C@]2(O)[C@H](O)[C@H](C(=O)N(C)C)[C@H]3c2ccccc2)cc1,IC50,[1],143 nM
COc1ccc([C@@]23Oc4cc(C#N)cnc4[C@]2(O)[C@H](O)[C@H](C(=O)N(C)C)[C@H]3c2ccccc2)cc1,IC50,[1],601 nM
CN(C)C(=O)[C@H]1[C@@H](O)[C@@]2(O)c3ncc(Cl)cc3O[C@@]2(c2ccc(OC(F)(F)F)cc2)[C@@H]1c1ccccc1,IC50,[1],603 nM
CN(C)C[C@H]1[C@@H](O)[C@@]2(O)c3ncc(Cl)cc3O[C@@]2(c2ccc(C#N)cc2)[C@@H]1c1ccccc1,IC50,[1],239 nM
CN(C)C(=O)[C@H]1[C@@H](O)[C@@]2(O)c3ncc(Cl)cc3O[C@@]2(c2ccc(S(C)(=O)=O)cc2)[C@@H]1c1ccccc1,IC50,[1],> 1000 nM
COc1cncc2c1[C@]1(O)[C@H](O)[C@H](CNC(C)(C)C)[C@@H](c3ccccc3)[C@]1(c1ccc(C#N)cc1)O2,IC50,[1],301 nM
same,"remaining at 0.5 h, 1 µM",[4],92%
same,"remaining at 0.5 h, 1 µM",[5],99%
same,inhibition at 10 µM,[6],< 10%
COc1cncc2c1[C@]1(O)[C@H](O)[C@H](CN(C)C)[C@@H](c3ccccc3)[C@]1(c1ccc(C#N)cc1)O2 (stereo in doubt; (+)-37),Papp,"[2]; caco-2, 10 µM, 10 µM",0.2 ×10⁻⁶ cm/s
same,Ratio,"[3]; caco-2, 10 µM, 10 µM",23
same,"remaining at 0.5 h, 1 µM",[4],72%
same,"remaining at 0.5 h, 1 µM",[5],75%
same,inhibition at 10 µM,[6],11%
CN(C)C(=O)[C@H]1[C@@H](O)[C@@]2(O)c3ncc(Cl)cc3O[C@@]2(c2ccc(F)cc2)[C@@H]1c1ccccc1,IC50,[1],> 1000 nM
CN(C)C(=O)[C@H]1[C@@H](O)[C@@]2(O)c3ccc(C#N)cc3O[C@@]2(c2ccc(C#N)cc2)[C@@H]1c1ccccc1 (racemic),IC50,[1],26 nM
COc1ccc([C@@]23Oc4cc(OC)cnc4[C@]2(O)[C@H](O)[C@H](C(=O)N(C)C)[C@H]3c2ccccc2)cc1 (racemic),IC50,[1],990 nM
CN(C)C(=O)[C@H]1[C@@H](O)[C@@]2(O)c3cnc(C#N)cc3O[C@@]2(c2ccc(C#N)cc2)[C@@H]1c1ccccc1,IC50,[1],308 nM
COc1cncc2c1[C@]1(O)[C@H](O)[C@H](CN3[C@@H]4CC[C@H]3COC4)[C@@H](c3ccccc3)[C@]1(c1ccc(C#N)cc1)O2,IC50,[1],101 nM
same,Papp A→B at 10 µM,[2]; Caco-2,1.9 ×10⁻⁶ cm/s
same,efflux ratio at 10 µM,[3]; Caco-2,5.3
same,"remaining at 0.5 h, 1 µM",[4],51%
same,"remaining at 0.5 h, 1 µM",[5],51%
COc1ccc2c(n1)O[C@@]1(c3ccc(C#N)cc3)[C@H](c3ccccc3)[C@@H](C(=O)N(C)C)[C@@H](O)[C@@]21O (racemic),IC50,[1],> 1000 nM
COc1ccc([C@@]23Oc4cc(C#N)ccc4[C@]2(O)[C@H](O)[C@H](C(=O)N(C)C)[C@H]3c2ccccc2)cc1 (racemic),IC50,[1],38 nM
COc1ccc2c(c1)O[C@@]1(c3ccc(C#N)cc3)[C@H](c3ccccc3)[C@@H](C(=O)N(C)C)[C@@H](O)[C@@]21O (racemic),IC50,[1],68 nM

# — ChEMBL document CHEMBL4613325, “Design of Development Candidate eFT226, a First in Class Inhibitor of Eukaryotic Initiation Factor 4A RNA Helicase” (J Med Chem, 2020)
